Source: article PMC5666424, “Marine-Derived 2-Aminoimidazolone Alkaloids. Leucettamine B-Related Polyandrocarpamines Inhibit Mammalian and Protozoan DYRK & CLK Kinases” (Marine Drugs, 2017)

Experiments:
Test in all cases: KinomeScan
Type in all cases: binding
Settings in all cases: 1 μM
[1] = target: T1, ABL1(Q252H)-phosphorylated (Homo sapiens, UniProt P00519, Q252H)
T1 construct: purchased DiscoverX (KINOMEscan)

[2] = target: T2, ABL1(T315I)-nonphosphorylated (Homo sapiens, UniProt P00519, T315I)
T2 construct: purchased DiscoverX (KINOMEscan)

ABL1-phosphorylated = target: T3, ABL1-phosphorylated (Homo sapiens, UniProt P00519)
T3 construct: purchased DiscoverX (KINOMEscan)

AKT3 = target: T4, AKT3 (Homo sapiens, UniProt Q9Y243)
T4 construct: purchased DiscoverX (KINOMEscan)
T4 sequence (Q9Y243 whole entry): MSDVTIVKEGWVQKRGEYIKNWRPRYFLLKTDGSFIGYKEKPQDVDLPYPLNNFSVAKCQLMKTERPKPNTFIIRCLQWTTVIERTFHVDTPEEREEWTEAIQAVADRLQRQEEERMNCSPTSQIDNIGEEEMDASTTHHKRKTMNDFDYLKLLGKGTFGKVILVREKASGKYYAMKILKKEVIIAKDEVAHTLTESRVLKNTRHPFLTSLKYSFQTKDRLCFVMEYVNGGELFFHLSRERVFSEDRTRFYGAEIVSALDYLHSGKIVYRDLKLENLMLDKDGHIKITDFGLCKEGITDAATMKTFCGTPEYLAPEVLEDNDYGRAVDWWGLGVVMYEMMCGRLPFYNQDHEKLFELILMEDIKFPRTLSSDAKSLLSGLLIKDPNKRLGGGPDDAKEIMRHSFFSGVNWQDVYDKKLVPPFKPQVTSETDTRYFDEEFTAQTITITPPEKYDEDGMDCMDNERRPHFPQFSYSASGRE

BLK = target: T5, BLK (Homo sapiens, UniProt P51451)
T5 construct: purchased DiscoverX (KINOMEscan)

CAMK2B = target: T6, CAMK2B (Homo sapiens, UniProt Q13554)
T6 construct: purchased DiscoverX (KINOMEscan)

CDK4-cyclinD1 = target: T7, CDK4-cyclinD1 (Homo sapiens, UniProt P11802)
T7 construct: purchased DiscoverX (KINOMEscan)
T7 sequence (P11802 whole entry): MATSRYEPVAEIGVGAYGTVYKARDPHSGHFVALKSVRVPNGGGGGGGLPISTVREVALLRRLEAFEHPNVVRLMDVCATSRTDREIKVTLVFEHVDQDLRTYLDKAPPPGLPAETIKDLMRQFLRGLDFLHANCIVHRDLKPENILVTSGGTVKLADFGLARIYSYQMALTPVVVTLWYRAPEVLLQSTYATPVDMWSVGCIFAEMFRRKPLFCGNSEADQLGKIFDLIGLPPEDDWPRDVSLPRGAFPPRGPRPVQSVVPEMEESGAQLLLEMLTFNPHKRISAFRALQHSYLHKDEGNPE
T7 sequence (P24385 whole entry partner): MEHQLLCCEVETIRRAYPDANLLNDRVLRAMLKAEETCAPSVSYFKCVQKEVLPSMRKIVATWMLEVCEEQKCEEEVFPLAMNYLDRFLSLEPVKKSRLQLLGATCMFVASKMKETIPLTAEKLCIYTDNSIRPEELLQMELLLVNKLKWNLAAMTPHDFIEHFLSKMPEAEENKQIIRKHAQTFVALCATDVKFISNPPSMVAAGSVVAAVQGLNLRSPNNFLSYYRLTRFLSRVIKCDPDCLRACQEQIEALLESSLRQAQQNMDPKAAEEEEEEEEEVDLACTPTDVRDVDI

CDK4-cyclinD3 = target: T8, CDK4-cyclinD3 (Homo sapiens, UniProt P11802)
T8 construct: purchased DiscoverX (KINOMEscan)
T8 sequence (P11802 whole entry): as the sequence (P11802 whole entry) above
T8 sequence (P30281 whole entry partner): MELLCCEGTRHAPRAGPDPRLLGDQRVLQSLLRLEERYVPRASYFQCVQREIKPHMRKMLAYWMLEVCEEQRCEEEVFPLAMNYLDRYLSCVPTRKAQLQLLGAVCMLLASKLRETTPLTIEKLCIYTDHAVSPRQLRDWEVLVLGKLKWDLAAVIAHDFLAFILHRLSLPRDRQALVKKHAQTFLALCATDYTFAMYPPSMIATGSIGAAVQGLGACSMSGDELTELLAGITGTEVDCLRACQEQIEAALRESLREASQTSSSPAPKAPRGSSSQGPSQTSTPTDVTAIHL

CDK5 = target: T9, CDK5 (Homo sapiens, UniProt Q00535)
T9 construct: purchased DiscoverX (KINOMEscan)

CDK8 = target: T10, CDK8 (Homo sapiens, UniProt P49336)
T10 construct: purchased DiscoverX (KINOMEscan)

DMPK = target: T11, DMPK (Homo sapiens, UniProt Q09013)
T11 construct: purchased DiscoverX (KINOMEscan)
T11 sequence (Q09013 whole entry): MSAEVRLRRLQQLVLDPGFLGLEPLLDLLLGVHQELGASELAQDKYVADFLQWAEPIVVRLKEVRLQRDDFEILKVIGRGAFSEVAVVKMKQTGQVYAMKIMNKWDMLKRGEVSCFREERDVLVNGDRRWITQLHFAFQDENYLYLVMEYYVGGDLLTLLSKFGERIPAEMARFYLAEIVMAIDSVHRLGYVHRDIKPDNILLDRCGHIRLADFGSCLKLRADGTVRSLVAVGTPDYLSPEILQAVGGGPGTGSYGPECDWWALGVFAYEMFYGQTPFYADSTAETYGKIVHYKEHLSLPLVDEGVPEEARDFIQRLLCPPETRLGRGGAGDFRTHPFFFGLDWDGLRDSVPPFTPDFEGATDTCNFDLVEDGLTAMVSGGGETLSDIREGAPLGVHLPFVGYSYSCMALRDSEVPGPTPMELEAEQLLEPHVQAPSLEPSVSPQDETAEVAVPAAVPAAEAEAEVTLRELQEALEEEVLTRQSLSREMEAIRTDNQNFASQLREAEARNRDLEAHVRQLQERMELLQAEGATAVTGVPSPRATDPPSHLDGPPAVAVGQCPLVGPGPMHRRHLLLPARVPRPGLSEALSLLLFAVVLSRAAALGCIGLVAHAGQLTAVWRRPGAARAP

DRAK1 = target: T12, DRAK1 (Homo sapiens, UniProt Q9UEE5)
T12 construct: purchased DiscoverX (KINOMEscan)

EPHA2 = target: T13, EPHA2 (Homo sapiens, UniProt P29317)
T13 construct: purchased DiscoverX (KINOMEscan)

ERBB3 = target: T14, ERBB3 (Homo sapiens, UniProt P21860)
T14 construct: purchased DiscoverX (KINOMEscan)

ERBB4 = target: T15, ERBB4 (Homo sapiens, UniProt Q15303)
T15 construct: purchased DiscoverX (KINOMEscan)

ERK4 = target: T16, ERK4 (Homo sapiens, UniProt P31152)
T16 construct: purchased DiscoverX (KINOMEscan)

ERN1 = target: T17, ERN1 (Homo sapiens, UniProt O75460)
T17 construct: purchased DiscoverX (KINOMEscan)

FLT4 = target: T18, FLT4 (Homo sapiens, UniProt P35916)
T18 construct: purchased DiscoverX (KINOMEscan)
T18 sequence (P35916 25-1363): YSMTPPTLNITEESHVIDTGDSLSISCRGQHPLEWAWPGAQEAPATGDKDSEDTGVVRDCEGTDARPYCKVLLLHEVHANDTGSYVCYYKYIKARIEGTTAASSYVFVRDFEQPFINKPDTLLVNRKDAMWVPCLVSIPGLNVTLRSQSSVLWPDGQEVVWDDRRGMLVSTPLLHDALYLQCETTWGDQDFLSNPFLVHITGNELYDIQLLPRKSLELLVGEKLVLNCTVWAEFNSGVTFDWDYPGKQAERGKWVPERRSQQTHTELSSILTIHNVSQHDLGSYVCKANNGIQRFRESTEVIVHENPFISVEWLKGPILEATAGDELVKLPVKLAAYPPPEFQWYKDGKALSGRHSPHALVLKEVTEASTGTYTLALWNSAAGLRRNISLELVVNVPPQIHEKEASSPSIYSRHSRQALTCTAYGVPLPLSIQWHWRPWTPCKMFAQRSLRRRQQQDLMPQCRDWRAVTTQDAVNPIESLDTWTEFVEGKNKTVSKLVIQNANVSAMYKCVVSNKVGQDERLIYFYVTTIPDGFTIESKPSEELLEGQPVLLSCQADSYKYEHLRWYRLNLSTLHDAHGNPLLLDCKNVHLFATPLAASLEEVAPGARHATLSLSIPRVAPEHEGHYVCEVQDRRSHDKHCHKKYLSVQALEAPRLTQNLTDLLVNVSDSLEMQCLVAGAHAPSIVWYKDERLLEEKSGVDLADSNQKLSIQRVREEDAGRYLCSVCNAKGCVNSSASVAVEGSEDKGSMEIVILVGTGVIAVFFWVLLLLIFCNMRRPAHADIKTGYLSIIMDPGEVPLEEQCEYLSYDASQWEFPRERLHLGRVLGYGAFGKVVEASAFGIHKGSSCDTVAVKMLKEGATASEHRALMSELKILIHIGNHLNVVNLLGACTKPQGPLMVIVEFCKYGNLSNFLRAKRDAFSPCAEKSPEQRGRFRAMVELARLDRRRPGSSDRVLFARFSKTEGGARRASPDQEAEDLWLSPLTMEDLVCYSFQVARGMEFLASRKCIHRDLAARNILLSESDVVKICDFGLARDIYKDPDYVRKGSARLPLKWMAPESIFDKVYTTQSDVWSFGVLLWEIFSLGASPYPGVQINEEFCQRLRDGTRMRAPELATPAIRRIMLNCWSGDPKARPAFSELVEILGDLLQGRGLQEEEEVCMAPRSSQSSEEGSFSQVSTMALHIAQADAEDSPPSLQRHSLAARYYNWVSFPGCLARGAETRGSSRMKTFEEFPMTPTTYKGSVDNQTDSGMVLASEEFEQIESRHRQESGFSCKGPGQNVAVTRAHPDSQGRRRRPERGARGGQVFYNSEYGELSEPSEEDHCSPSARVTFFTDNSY

IKK-alpha = target: T19, IKK-alpha (Homo sapiens, UniProt O15111)
T19 construct: purchased DiscoverX (KINOMEscan)

KIT(D816V) = target: T20, KIT(D816V) (Homo sapiens, UniProt P10721, D816V)
T20 construct: purchased DiscoverX (KINOMEscan)

LRRK2 = target: T21, LRRK2 (Homo sapiens, UniProt Q5S007)
T21 construct: purchased DiscoverX (KINOMEscan)

LYN = target: T22, LYN (Homo sapiens, UniProt P07948)
T22 construct: purchased DiscoverX (KINOMEscan)
T22 sequence (P07948 whole entry): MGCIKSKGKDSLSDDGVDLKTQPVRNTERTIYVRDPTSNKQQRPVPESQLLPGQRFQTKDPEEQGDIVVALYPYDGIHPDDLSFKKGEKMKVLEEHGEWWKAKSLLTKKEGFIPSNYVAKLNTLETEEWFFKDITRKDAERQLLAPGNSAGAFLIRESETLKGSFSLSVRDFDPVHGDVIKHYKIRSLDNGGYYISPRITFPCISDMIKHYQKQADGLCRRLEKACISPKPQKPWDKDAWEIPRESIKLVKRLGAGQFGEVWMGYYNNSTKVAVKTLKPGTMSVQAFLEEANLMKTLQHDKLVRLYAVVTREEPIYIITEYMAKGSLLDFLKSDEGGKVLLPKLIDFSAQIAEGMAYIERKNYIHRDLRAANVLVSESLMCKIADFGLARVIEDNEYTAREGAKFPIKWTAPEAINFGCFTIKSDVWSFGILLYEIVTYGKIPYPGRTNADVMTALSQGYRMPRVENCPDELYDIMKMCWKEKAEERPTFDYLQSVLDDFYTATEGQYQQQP

LZK = target: T23, LZK (Homo sapiens, UniProt O43283)
T23 construct: purchased DiscoverX (KINOMEscan)
T23 sequence (O43283 whole entry): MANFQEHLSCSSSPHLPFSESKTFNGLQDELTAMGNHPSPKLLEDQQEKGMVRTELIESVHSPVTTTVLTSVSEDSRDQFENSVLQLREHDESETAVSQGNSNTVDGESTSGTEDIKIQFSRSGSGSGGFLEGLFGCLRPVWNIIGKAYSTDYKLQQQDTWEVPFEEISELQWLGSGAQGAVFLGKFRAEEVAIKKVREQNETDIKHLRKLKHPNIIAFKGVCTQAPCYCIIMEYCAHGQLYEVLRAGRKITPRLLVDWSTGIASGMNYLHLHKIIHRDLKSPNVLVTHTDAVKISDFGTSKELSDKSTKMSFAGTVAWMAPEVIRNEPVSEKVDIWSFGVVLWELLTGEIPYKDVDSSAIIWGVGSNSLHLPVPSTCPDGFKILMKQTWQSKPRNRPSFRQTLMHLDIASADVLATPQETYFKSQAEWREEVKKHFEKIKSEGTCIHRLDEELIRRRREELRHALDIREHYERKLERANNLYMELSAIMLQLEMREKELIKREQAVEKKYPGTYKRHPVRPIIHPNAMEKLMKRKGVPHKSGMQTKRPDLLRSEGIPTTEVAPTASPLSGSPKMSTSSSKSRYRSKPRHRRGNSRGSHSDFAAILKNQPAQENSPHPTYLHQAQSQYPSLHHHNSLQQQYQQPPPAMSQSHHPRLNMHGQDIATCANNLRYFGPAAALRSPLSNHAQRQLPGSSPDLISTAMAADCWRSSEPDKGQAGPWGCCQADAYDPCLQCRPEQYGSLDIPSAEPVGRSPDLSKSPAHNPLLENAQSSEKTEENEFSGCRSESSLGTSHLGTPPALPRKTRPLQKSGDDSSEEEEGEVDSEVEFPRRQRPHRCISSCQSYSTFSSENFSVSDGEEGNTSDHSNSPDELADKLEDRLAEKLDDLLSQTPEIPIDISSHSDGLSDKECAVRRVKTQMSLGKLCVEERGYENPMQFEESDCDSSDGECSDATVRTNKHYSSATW

MAK = target: T24, MAK (Homo sapiens, UniProt P20794)
T24 construct: purchased DiscoverX (KINOMEscan)

MAP3K2 = target: T25, MAP3K2 (Homo sapiens, UniProt Q9Y2U5)
T25 construct: purchased DiscoverX (KINOMEscan)

MARK3 = target: T26, MARK3 (Homo sapiens, UniProt P27448)
T26 construct: purchased DiscoverX (KINOMEscan)

MEK5 = target: T27, MEK5 (Homo sapiens, UniProt Q13163)
T27 construct: purchased DiscoverX (KINOMEscan)

MEK6 = target: T28, MEK6 (Homo sapiens, UniProt P52564)
T28 construct: purchased DiscoverX (KINOMEscan)

NDR1 = target: T29, NDR1 (Homo sapiens, UniProt Q15208)
T29 construct: purchased DiscoverX (KINOMEscan)

SNARK = target: T30, SNARK (Homo sapiens, UniProt Q9H093)
T30 construct: purchased DiscoverX (KINOMEscan)

SRMS = target: T31, SRMS (Homo sapiens, UniProt Q9H3Y6)
T31 construct: purchased DiscoverX (KINOMEscan)

STK33 = target: T32, STK33 (Homo sapiens, UniProt Q9BYT3)
T32 construct: purchased DiscoverX (KINOMEscan)

STK35 = target: T33, STK35 (Homo sapiens, UniProt Q8TDR2)
T33 construct: purchased DiscoverX (KINOMEscan)

SYK = target: T34, SYK (Homo sapiens, UniProt P43405)
T34 construct: purchased DiscoverX (KINOMEscan)

TAOK3 = target: T35, TAOK3 (Homo sapiens, UniProt Q9H2K8)
T35 construct: purchased DiscoverX (KINOMEscan)

TRPM6 = target: T36, TRPM6 (Homo sapiens, UniProt Q9BX84)
T36 construct: purchased DiscoverX (KINOMEscan)

YANK3 = target: T37, YANK3 (Homo sapiens, UniProt Q86UX6)
T37 construct: purchased DiscoverX (KINOMEscan)

YSK1 = target: T38, YSK1 (Homo sapiens, UniProt O00506)
T38 construct: purchased DiscoverX (KINOMEscan)

`COc1cc(/C=C2\N=C(N)NC2=O)ccc1O` [Polyandrocarpamine A] showed a Score [1] of 100, a Score [2] of 67 and a Score (ABL1-phosphorylated) of 100. It also gave a Score (AKT3) of 100, a Score (BLK) of 100 and a Score (CAMK2B) of 90. For the same compound, the Score (CDK4-cyclinD1) was 96, the Score (CDK4-cyclinD3) was 98 and the Score (CDK5) was 100. The Score (CDK8) was 100, the Score (DMPK) was 100 and the Score (DRAK1) was 42. It also gave a Score (EPHA2) of 100, a Score (ERBB3) of 100 and a Score (ERBB4) of 99. It also gave a Score (ERK4) of 100, a Score (ERN1) of 100 and a Score (FLT4) of 100. It also gave a Score (IKK-alpha) of 100, a Score (KIT(D816V)) of 100 and a Score (LRRK2) of 100. For the same compound, the Score (LYN) was 89, the Score (LZK) was 100 and the Score (MAK) was 91. It also gave a Score (MAP3K2) of 100, a Score (MARK3) of 100 and a Score (MEK5) of 78. It also gave a Score (MEK6) of 100, a Score (NDR1) of 100 and a Score (SNARK) of 100. The Score (SRMS) was 100, the Score (STK33) was 100 and the Score (STK35) was 95. For the same compound, the Score (SYK) was 100, the Score (TAOK3) was 87 and the Score (TRPM6) was 100. It also gave a Score (YANK3) of 100 and a Score (YSK1) of 100.
